From patent US9493461B2, “Tetracyclic heterocycle compounds and methods of use thereof for the treatment of hepatitis C” (priority 2013, dated 2016)
Like-named read-outs stand apart in the source and are kept apart here.

Tests used:
HCV replicon genotype 1a = test: HCV replicon assay, genotype 1a (cell ELISA for replicon-encoded NS3/4A); format: cell-based, hepatitis C virus (HCV)
Method: Measurement of inhibition by compounds was performed using the HCV replicon system. Several different replicons encoding different HCV genotypes or mutations were used. In addition, potency measurements were made using different formats of the replicon assay, including different ways of measurements and different plating formats. See Jan M. Vrolijk et al., A replicons-based bioassay for the measurement of interferons in patients with chronic hepatitis C, 110 J. V[…] 201 (2003); Steven S. Carroll et al., Inhibition of Hepatitis C Virus RNA Replication by 2′-Modified Nucleoside Analogs, 278(14) J. BIOLOGICAL CHEMISTRY 11979 (2003). However, the underlying principles are common to all of these determinations, and are outlined below.
(§1) Stable neomycin phosphotransferase encoding replicons-harboring cell lines were used, so all cell lines were maintained under G418 selection prior to the assay. Potency was determined using a cell ELISA assay with an antibody to the replicons encoded NS3/4a protease. See Caterina Trozzi et al., In Vitro Selection and Characterization of Hepatitis C Virus Serine Protease Variants Resistant to an Active-Site Peptide Inhibitor, 77(6) J. Virol. 3669 (2003). To initiate an assay, replicon cells were plated in the presence of a dilution series of test compound in the absence of G418. Typically, the assays were performed in a 96-well plate formate for manual operation, or a 384-well plate format for automated assay. Replicon cells and compound were incubated for 96 hours. At the end of the assay, cells were washed free of media and compound, and the cells were then lysed. RNA was quantified indirectly through detection of replicon-encoded NS3/4A protein levels, through an ELISA-based assay with an antibody specific for NS3/4A. IC50 determinations were calculated as a percentage of a DMSO control by fitting the data to a four-parameter fit function and the data obtained is provided in the table below.
(§2) Data for selected compounds of the present invention was obtained for genotypes 1a and 1b using this method and is provided in the table below: […]

HCV replicon genotype 1b = test: HCV replicon assay, genotype 1b (cell ELISA for replicon-encoded NS3/4A); format: cell-based, hepatitis C virus (HCV)
Method: The HCV NS5B inhibitory activity of the present compounds may be tested using assays known in the art. The HCV NS5B polymerase inhibitors described herein have activities in a genotype 1b replicon assay as described in the Examples. The assay is performed by incubating a replicon harboring cell-line in the presence of inhibitor for a set period of time and measuring the effect of the inhibitor on HCV replicon replication either directly by quantifying replicon RNA level, or indirectly by measuring enzymatic activity of a co-encoded reporter enzyme such as luciferase or β-lactamase. By performing a series of such measurements at different inhibitor concentrations, the effective inhibitory concentration of the inhibitor (EC50 or EC90) is determined See Jan M. Vrolijk et al., A replicons-based bioassay for the measurement of interferons in patients with chronic hepatitis C, 110 J. VIROLOGICAL METHODS 201 (2003). Such assays may also be run in an automated format for high through-put screening. See Paul Zuck et al., A cell-based β-lactamase reporter gene assay for the identification of inhibitors of hepatitis C virus replication, 334 ANALYTICAL BIOCHEMISTRY 344 (2004).
Measurement of inhibition by compounds was performed using the HCV replicon system. Several different replicons encoding different HCV genotypes or mutations were used. In addition, potency measurements were made using different formats of the replicon assay, including different ways of measurements and different plating formats. See Jan M. Vrolijk et al., A replicons-based bioassay for the measurement of interferons in patients with chronic hepatitis C, 110 J. VIROLOGICAL METHODS 201 (2003); Steven S. Carroll et al., Inhibition of Hepatitis C Virus RNA Replication by 2′-Modified Nucleoside Analogs, 278(14) J. BIOLOGICAL CHEMISTRY 11979 (2003). However, the underlying principles are common to all of these determinations, and are outlined below.
as §1, §2

[1] = Hepatitis C virus, 96 h, read-out: 1a IC50 (nM), genotype 1a replicon cells, 96 hours incubation, NS3/4A ELISA readout, % of DMSO control
[2] = Hepatitis C virus, 96 h, read-out: 1b IC50 (nM), genotype 1b replicon cells, 96 hours incubation, NS3/4A ELISA readout, % of DMSO control

CNC(=O)c1c(C(=O)N2CC(F)C2)oc2cc(N(C)S(C)(=O)=O)c(-c3ccc4ncn5c6cccc(F)c6cc5c4n3)cc12 [Example 50, 2-(3-fluoroazetidine-1-carbonyl)-5-(11-fluoropyrido[3′,2′:4,5]pyrimido[1,6-a]indol-2-yl)-N-methyl-6-(N-methylmethylsulfonamido)benzofuran-3-carboxamide]
IC50 (HCV replicon genotype 1a; [1]): 18.1 nM
IC50 (HCV replicon genotype 1b; [2]): 19.8 nM

CNC(=O)c1c(C(=O)N2CC(F)(F)C2)oc2cc(N(C)S(C)(=O)=O)c(-c3ccc4ncn5c6cccc(F)c6cc5c4n3)cc12 [Example 51]
IC50 (HCV replicon genotype 1a; [1]): 39.1 nM
IC50 (HCV replicon genotype 1b; [2]): 32 nM

CNC(=O)c1c(C(=O)N2CCC2(C)C)oc2cc(N(C)S(C)(=O)=O)c(-c3ccc4ncn5c6cccc(F)c6cc5c4n3)cc12 [Example 52]
IC50 (HCV replicon genotype 1a; [1]): 260 nM
IC50 (HCV replicon genotype 1b; [2]): 120 nM

CCc1ncc(-c2oc3cc(N(C)S(C)(=O)=O)c(-c4ccc5ncn6c7cccc(F)c7cc6c5n4)cc3c2C(=O)NC)s1 [Example 53, 2-(2-ethylthiazol-5-yl)-5-(11-fluoropyrido[3′,2′:4,5]pyrimido[1,6-a]indol-2-yl)-N-methyl-6-(N-methylmethylsulfonamido)benzofuran-3-carboxamide]
IC50 (HCV replicon genotype 1a; [1]): 7.79 nM
IC50 (HCV replicon genotype 1b; [2]): 6.37 nM

CNC(=O)c1c(-c2ccc(F)cc2)oc2cc(N(C)S(C)(=O)=O)c(-c3ccc4nc(CCN5CC(F)C5)n5c6cccc(F)c6cc5c4n3)cc12 [Example 54, 5-(11-fluoro-6-(2-(3-fluoroazetidin-1-yl)ethyl)pyrido[3′,2′:4,5]pyrimido[1,6-a]indol-2-yl)-2-(4-fluorophenyl)-N-methyl-6-(N-methylmethylsulfonamido)benzofuran-3-carboxamide]
IC50 (HCV replicon genotype 1a; [1]): 2.14 nM
IC50 (HCV replicon genotype 1b; [2]): 4.86 nM

CNC(=O)c1c(-c2ccc(F)cc2)oc2cc(N(C)S(C)(=O)=O)c(-c3ccc4ncn5c6cccc(F)c6cc5c4n3)cc12 [Example 55, 2-(4-fluorophenyl)-5-(11-fluoropyrido[3′,2′:4,5]pyrimido[1,6-a]indol-2-yl)-N-methyl-6-(N-methylmethylsulfonamido)benzofuran-3-carboxamide]
IC50 (HCV replicon genotype 1a; read-out: 1a IC50, genotype 1a replicon cells, 96 hours incubation, NS3/4A ELISA readout, % of DMSO control): 1.55 nM
IC50 (HCV replicon genotype 1b; read-out: 1b IC50, genotype 1b replicon cells, 96 hours incubation, NS3/4A ELISA readout, % of DMSO control): 2.01 nM

CNC(=O)c1c(-c2ccc(F)cc2)oc2cc(N(C)S(C)(=O)=O)c(-c3ccc4c(n3)-c3cc5c(F)cccc5n3CN4)cc12 [Example 56, 5-(11-fluoro-5,6-dihydropyrido[3′,2′:4,5]pyrimido[1,6-a]indol-2-yl)-2-(4-fluorophenyl)-N-methyl-6-(N-methylmethylsulfonamido)benzofuran-3-carboxamide]
IC50 (HCV replicon genotype 1a; [1]): 5.26 nM
IC50 (HCV replicon genotype 1b; [2]): 5.32 nM

CNC(=O)c1c(-c2ccc(F)cc2)oc2cc(N(C)S(C)(=O)=O)c(-c3cnc4c(c3)-c3cc5c(F)cccc5n3CN4)cc12 [Example 57]
IC50 (HCV replicon genotype 1a; [1]): 2.66 nM
IC50 (HCV replicon genotype 1b; [2]): 3.11 nM

CNC(=O)c1c(-c2ccc(F)cc2F)oc2cc(N(C)S(C)(=O)=O)c(-c3ccc4c(n3)-c3cc5c(F)cccc5n3CN4)cc12 [Example 58]
IC50 (HCV replicon genotype 1a; [1]): 1.68 nM
IC50 (HCV replicon genotype 1b; [2]): 2.76 nM

CNC(=O)c1c(-c2ccc(F)cc2)oc2cc(N(C)S(C)(=O)=O)c(-c3cnc4ncn5c6cccc(F)c6cc5c4c3)cc12 [Example 59, 2-(4-fluorophenyl)-5-(11-fluoropyrido[2′,3′:4,5]pyrimido[1,6-a]indol-2-yl)-N-methyl-6-(N-methylmethylsulfonamido)benzofuran-3-carboxamide]
IC50 (HCV replicon genotype 1a; [1]): 2 nM
IC50 (HCV replicon genotype 1b; [2]): 2.16 nM

CNC(=O)c1c(-c2ccc(F)cc2)oc2cc(N(C)S(C)(=O)=O)c(-c3ccc4nc(C)n5c6cccc(F)c6cc5c4n3)cc12 [Example 60, 5-(11-fluoro-6-methylpyrido[3′,2′:4,5]pyrimido[1,6-a]indol-2-yl)-2-(4-fluorophenyl)-N-methyl-6-(N-methylmethylsulfonamido)benzofuran-3-carboxamide]
IC50 (HCV replicon genotype 1a; [1]): 2.78 nM
IC50 (HCV replicon genotype 1b; [2]): 2.77 nM
